The values that follow come from patent US9469615B2, “Quinoxalines and AZA-quinoxalines as CRTH2 receptor modulators” (Merck Sharp & Dohme Corp., priority 2010, dated 2016).

By Ki is commonly meant the dissociation constant of the complex between target and ligand, obtained from inhibition or displacement. Higher therefore signals a looser hold on the target.

The first assay concerns the target T1, hCRTH2 (Homo sapiens, UniProt Q9Y5Y4).
T1 construct: expressed in transfected cells; host or cells: HEK (human embryonic kidney) cells expressing hCRTH2; membrane preparation
T1 sequence (Q9Y5Y4 1-395): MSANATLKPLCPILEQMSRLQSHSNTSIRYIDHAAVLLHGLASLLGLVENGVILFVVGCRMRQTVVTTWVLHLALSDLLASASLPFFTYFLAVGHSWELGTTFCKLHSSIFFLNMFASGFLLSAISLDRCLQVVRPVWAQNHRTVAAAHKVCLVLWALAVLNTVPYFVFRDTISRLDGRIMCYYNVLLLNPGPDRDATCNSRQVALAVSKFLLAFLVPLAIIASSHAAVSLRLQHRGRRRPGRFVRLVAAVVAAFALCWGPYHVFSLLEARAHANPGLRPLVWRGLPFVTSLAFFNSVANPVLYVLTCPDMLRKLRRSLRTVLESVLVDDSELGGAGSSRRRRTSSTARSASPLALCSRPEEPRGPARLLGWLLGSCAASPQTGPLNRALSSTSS
As to the kind of experiment: Radioligand binding assay ([3H]PGD2 competition, HEK-hCRTH2 membranes). The settings on record: [3H]PGD2 binding, rated A-E (Table A). In outline:
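Competition binding with 3.0 nM [3H]PGD2 and 8-20 μg HEK-hCRTH2 membrane protein in 50 mM Tris-HCl pH 7.4, 1 mM EDTA, 2 mM MnCl2, 1% Me2SO, 60 min at room temperature. Nonspecific binding defined with 10 μM PGD2; bound radioactivity counted after filtration.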
With `O=C(O)CCCCc1nc2cc(C(=O)N3CCC(c4ccccc4)C3)ccc2nc1-c1cc(Cl)cc(Cl)c1` (stereo not drawn) [26G, 3-(3,5-dichlorophenyl)-7-[(3-phenyl-1-pyrrolidinyl)carbonyl]-2-quinoxalinepentanoic acid], the Ki lay in the range of 2.1 to 20 nM.

Molecule `O=C(O)CCCCc1nc2cc(C(=O)N3CCC(c4ccccc4)C3)ccc2nc1-c1ccc(F)cc1F` (stereo not drawn) [26H, 3-(2,4-difluorophenyl)-7-[(3-phenyl-1-pyrrolidinyl)carbonyl]-2-quinoxalinepentanoic acid] showed a Ki of 2.1 to 20 nM.

On to `O=C(O)CCCCc1nc2cc(C(=O)N3CCC(c4ccccc4)CC3)ccc2nc1-c1cccc(Cl)c1` [26J, 3-(3-chlorophenyl)-7-[(4-phenyl-1-piperidinyl)carbonyl]-2-quinoxalinepentanoic acid], for which the Ki fell in the range of 0.1 to 2 nM.

The molecule `O=C(O)CCCCc1nc2cc(C(=O)N3CCC(c4ccccc4)CC3)ccc2nc1-c1ccc(C(F)(F)F)nc1` [26K, 7-[(4-phenyl-1-piperidinyl)carbonyl]-3-[6-(trifluoromethyl)-3-pyridinyl]-2-quinoxalinepentanoic acid] registered an inhibitory constant (Ki) of 2.1 to 20 nM.

In the case of `O=C(O)CCCCc1nc2cc(C(=O)N3CCC(c4ccccc4)CC3)ccc2nc1-c1ccccc1Cl` [26L, 3-(2-chlorophenyl)-7-[(4-phenyl-1-piperidinyl)carbonyl]-2-quinoxalinepentanoic acid], the inhibitory constant (Ki) was 2.1 to 20 nM.

Take `O=C(O)CCCCc1nc2cc(C(=O)N3CCC(c4ccccc4)CC3)ccc2nc1-c1cccnc1` [26M, 7-[(4-phenyl-1-piperidinyl)carbonyl]-3-(3-pyridinyl)-2-quinoxalinepentanoic acid]: the Ki lay within 2.1 to 20 nM.

`O=C(O)CCCCc1nc2cc(C(=O)N3CCC(c4ccccc4)CC3)ccc2nc1-c1ccc(OC(F)(F)F)cc1` [26N, 7-[(4-phenyl-1-piperidinyl)carbonyl]-3-[4-(trifluoromethoxy)phenyl]-2-quinoxalinepentanoic acid] showed an inhibition constant Ki of 0.1 to 2 nM.

Regarding `N#Cc1ccc(-c2nc3ccc(C(=O)N4CCC(c5ccccc5)CC4)cc3nc2CCCCC(=O)O)cc1` [26P, 3-(4-cyanophenyl)-7-[(4-phenyl-1-piperidinyl)carbonyl]-2-quinoxalinepentanoic acid], the Ki was in the range of 2.1 to 20 nM.

The molecule `O=C(O)CCCCc1nc2cc(C(=O)N3CCC(c4ccccc4)CC3)ccc2nc1-c1cncnc1` [26Q, 7-[(4-phenyl-1-piperidinyl)carbonyl]-3-(5-pyrimidinyl)-2-quinoxalinepentanoic acid] returned a Ki of 20.1 to 200 nM.

Consider `O=C(O)CCCCc1nc2cc(C(=O)N3CCC(c4ccccc4)CC3)ccc2nc1-c1cncc(Cl)c1` [26R, 3-(5-chloro-3-pyridinyl)-7-[(4-phenyl-1-piperidinyl)carbonyl]-2-quinoxalinepentanoic acid], for which the inhibition constant Ki fell in the range of 20.1 to 200 nM.

Regarding `O=C(O)CCCCc1nc2cc(C(=O)N3CCC(c4ccccc4)CC3)ccc2nc1-c1ccsc1` [26S, 7-[(4-phenyl-1-piperidinyl)carbonyl]-3-(3-thienyl)-2-quinoxalinepentanoic acid], the Ki was 0.1 to 2 nM.

`Cn1cc(-c2nc3ccc(C(=O)N4CCC(c5ccccc5)CC4)cc3nc2CCCCC(=O)O)cn1` [26T, 3-(1-methyl-1H-pyrazol-4-yl)-7-[(4-phenyl-1-piperidinyl)carbonyl]-2-quinoxalinepentanoic acid]: the Ki was 2.1 to 20 nM.

`CC(=O)c1ccccc1-c1nc2ccc(C(=O)N3CCC(c4ccccc4)CC3)cc2nc1CCCCC(=O)O` [26U, 3-(2-acetylphenyl)-7-[(4-phenyl-1-piperidinyl)carbonyl]-2-quinoxalinepentanoic acid] gave a Ki of 2.1 to 20 nM.

Consider `COc1cc(C(F)(F)F)ccc1-c1nc2ccc(C(=O)N3CCC(c4ccccc4)CC3)cc2nc1CCCCC(=O)O` [26V, 3-[2-methoxy-4-(trifluoromethyl)phenyl]-7-[(4-phenyl-1-piperidinyl)carbonyl]-2-quinoxalinepentanoic acid], for which the Ki lay in the range of 0.1 to 2 nM.

The assay is the same for the next values; noted with them: [3H]PGD2 binding, values in text.
With `O=C(O)CCCCc1nc2cc(C(=O)N3CCC(c4ccccc4)CC3)ccc2nc1-c1cncnc1` [26Q, 7-[(4-phenyl-1-piperidinyl)carbonyl]-3-(5-pyrimidinyl)-2-quinoxalinepentanoic acid], the inhibition constant (Ki) was 96.7 nM.
